Source: ChEMBL document CHEMBL1149013, “Antitumor agents, 82. Cytotoxic sapogenols from Aesculus hippocastanum” (1986)
Values after ≈ are worked out from the molar mass of the structure shown. Active and inactive are the calls of the source. No cut-off for these calls is given here.

System: KB
Assay: Cytotoxicity against human KB cells
Assay type: functional
Details: for EC50: read-out: ED50 (the source's name)

C/C=C(/C)C(=O)O[C@H]1[C@H](OC(=O)/C(C)=C/C)C(C)(C)C[C@H]2C3=CC[C@@H]4[C@@]5(C)CC[C@H](O)C(C)(C)[C@@H]5CC[C@@]4(C)[C@]3(C)[C@@H](O)[C@@H](O)[C@]21CO [HIPPOCAESCULIN]
EC50: 3.6 mg/L (≈ 5.37 µM)

CC1(C)C[C@H]2C3=CC[C@@H]4[C@@]5(C)CC[C@H](O)C(C)(C)[C@@H]5CC[C@@]4(C)[C@]3(C)[C@@H](O)[C@@H](O)[C@@]2(CO)[C@@H](O)[C@@H]1O
Activity: inactive

CC1(C)C[C@H]2C3=CC[C@@H]4[C@@]5(C)CC[C@H](O)C(C)(C)[C@@H]5CC[C@@]4(C)[C@]3(C)C[C@@H](O)[C@@]2(CO)[C@@H](O)[C@@H]1O
Activity: inactive

C/C=C(/C)C(=O)O[C@H]1[C@H](O)[C@]2(CO)[C@H](O)C[C@]3(C)C(=CC[C@@H]4[C@@]5(C)CC[C@H](O)C(C)(C)[C@@H]5CC[C@]43C)[C@@H]2CC1(C)C
EC50: 3 mg/L (≈ 5.24 µM)

CC1(C)OC[C@@]23[C@@H]4OC(C)(C)O[C@@H]4[C@]4(C)C(=CC[C@@H]5[C@@]6(C)CC[C@H](O)C(C)(C)[C@@H]6CC[C@]54C)[C@@H]2CC(C)(C)[C@@H](O)[C@@H]3O1
EC50: 4 mg/L (≈ 6.82 µM)
